# In BindingDB's records for doi:10.1111/j.1747-0285.2011.01215.x (Yeditepe University, 2011):
# Biological target: Sigma non-opioid intracellular receptor 1 (Cavia porcellus, UniProt Q60492)
# Experiment: Sigma 1 Assay
# Conditions: pH 7.4; 37 °C
# Experimental: The test was performed with the radioligand [3H]-(+)-pentazocine (42.5 Ci/mmol) from Perkin Elmer.
# Sequence of Sigma non-opioid intracellular receptor 1 (Q60492 whole entry): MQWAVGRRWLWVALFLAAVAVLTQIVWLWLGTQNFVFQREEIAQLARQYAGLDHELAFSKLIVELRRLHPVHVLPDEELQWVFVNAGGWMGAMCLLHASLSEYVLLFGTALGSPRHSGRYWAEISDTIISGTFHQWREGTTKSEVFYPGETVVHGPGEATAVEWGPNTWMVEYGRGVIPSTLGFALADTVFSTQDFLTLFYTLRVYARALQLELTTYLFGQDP
row,SMILES,Ki
1,"Fc1ccc(N2CCN(Cc3cn(CN4CCN(c5ccc(F)cc5)CC4)c4ccccc34)CC2)cc1 [1,3-di-{[4-(4-fluorophenyl)piperazin1-yl]methyl}-1 H-indole, 2a]",2690 nM
2,"Fc1ccc(N2CCN(CCCn3ccc4ccccc43)CC2)cc1 [1-{3-[4-(substitutedphenyl)piperazin1-yl]propyl}-1 H-indole, 4a]",456 nM
3,"Fc1ccccc1N1CCN(CCCn2ccc3ccccc32)CC1 [1-{3-[4-(substitutedphenyl)piperazin1-yl]propyl}-1 H-indole, 4b]",264 nM
4,"c1ccc(N2CCN(CCCn3ccc4ccccc43)CC2)cc1 [1-{3-[4-(substitutedphenyl)piperazin1-yl]propyl}-1 H-indole, 4c]",1490 nM
5,"Cc1cn(CN2CCN(c3ccc(F)cc3)CC2)c2ccccc12 [1-{[4-(substitutedphenyl/phenylethyl)piperazin1-yl]methyl}-3-methyl-1 H-indole, 3a]",1000 nM
6,"Cc1cn(CN2CCN(CCc3ccccc3)CC2)c2ccccc12 [1-{[4-(substitutedphenyl/phenylethyl)piperazin1-yl]methyl}-3-methyl-1 H-indole, 3b]",14.2 nM
7,Fc1ccc(N2CCN(Cc3c[nH]c4ccccc34)CC2)cc1 [3-[[4-(4-fluorophenyl)piperazin-1-yl]methyl]-1H-indole],3640 nM
8,"Fc1ccc(F)c(CN2CCN(Cc3c[nH]c4ccccc34)CC2)c1 [3-{[4-(substitutedphenyl/benzyl)piperazin1-yl]methyl}-1 H-indole, 1b]",216 nM
9,"Clc1ccc(CN2CCN(Cc3c[nH]c4ccccc34)CC2)cc1Cl [3-{[4-(substitutedphenyl/benzyl)piperazin1-yl]methyl}-1 H-indole, 1c]",126 nM
